From patent publication US20110224245A1, “Treatment Of Neurological Disorders Using Huperzine” (President and Fellows of Harvard College, priority 2008, published 2011)
Entries after “also recorded” stand apart in the source; their conditions may differ.

Assays:
[1] = tested on: Subcutaneous Metrazol (pentylenetetrazol; SCMET) seizures; assay: Subcutaneous Metrazol (SCMET / scPTZ) model, rats, oral; format: in vivo
Experimental: (§1) Huperzine A was evaluated in the Maximal Electroshock (MES) and Subcutaneous Metrazol (pentylenetetrazol; SCMET) models of generalized tonic-clonic and myoclonic seizures, respectively in mice and rats.
(§2) The Subcutaneous Metrazole (SCMET) model is also an art-recognized test for therapeutic agents for epilepsy, and in particular, is useful for investigating petite mal seizures. A Metrazole dose of 85 mg/kg was administered subcutaneously to induce seizures. Huperzine was then administered and the animals observed.
Peak anticonvulsant activity was observed one-hour after p.o. administration of 1 mg/kg.

[2] = Solubility in methyl cellulose solvent; format: physicochemical
From the text: (§3) Huperzine A was either administered in a soluble form (SOL) or as a suspension (SUS). […] To produce the suspension, huperzine A was ground to a powder using a mortar and pestle, and the powder mixed with methyl cellulose. This mixture was then sonicated to produce a suspension that was subsequently administered to mice in the weight range of 19.0 to 25.5 g. The data are presented as the number of mice showing an effect (N) from the full number of mice (F) tested. […] At four hours post administration, all three mice were protected (i.e., 100% were protected).

[3] = tested on: rats; assay: Toxicity (TOX) / minimal motor impairment, rats, oral; format: in vivo
[4] = tested on: Subcutaneous Metrazol (pentylenetetrazol; SCMET) seizures; assay: Subcutaneous Metrazol (SCMET / scPTZ) model, mice i.p.; format: in vivo; settings: (MJ) animals displaying myoclonic jerks
Experimental: as §1, §2, §3
Male, 18-25 g CF1 mice and 100-125 g Sprague-Dawley rats (Charles River Laboratories, Wilmington, Mass.) were used as the experimental animals. Animals were pretreated intraperitoneally (i.p.) with increasing doses of HupA and tested at various times after administration for protection against tonic extension (MES test), minimal clonic (s.c. PTZ test), limbic (6 Hz), or secondarily generalized (kindled rat) seizures. Seizure testing was carried out as follows. […] The ability of the test substance to prevent seizures induced by 6 Hz corneal stimulation (32 mA, 3 sec duration) was assessed at various times after i.p. administration of 1 mg/kg HupA For assessment of hippocampal kindling, HupA (1 mg/kg, i.p.) was administered. The ability of the compound to block the expression of hippocampal kindled seizures was evaluated using the rapid hippocampal kindling model (White et al., 2002). […]

[5] = tested on: patients; settings: published clinical studies; mainly cholinergic (dizziness, nausea, gastrointestinal symptoms, sweating, depressed heart rate); cited from earlier work
[6] = tested on: 6 Hz seizures; assay: 6 Hz seizure test, mice i.p.; format: in vivo; settings: for Time to Peak Effect N/F: 6 HZ, 0.83 mg/kg
Experimental: HupA was also evaluated for its ability to modify tonic extension, minimal clonic, limbic seizures in the maximal electroshock seizure (MES), subcutaneous pentylenetetrazol (sc PTZ), and 6 Hz seizure tests following intraperitoneal administration. These three tests are highly predictive of efficacy against human generalized tonic-clonic (MES), generalized myoclonic (sc PTZ), and refractory limbic (6 Hz) seizures, respectively. In addition, it was tested for its ability to prevent the expression of Stage V seizures in the hippocampal kindled rat model of partial epilepsy.
Male, 18-25 g CF1 mice and 100-125 g Sprague-Dawley rats (Charles River Laboratories, Wilmington, Mass.) were used as the experimental animals. Animals were pretreated intraperitoneally (i.p.) with increasing doses of HupA and tested at various times after administration for protection against tonic extension (MES test), minimal clonic (s.c. PTZ test), limbic (6 Hz), or secondarily generalized (kindled rat) seizures. Seizure testing was carried out as follows. For the MES and 6 Hz tests, a drop of anesthetic/electrolyte solution (0.5% tetracaine hydrochloride in 0.9% saline) was applied to the eyes of each animal prior to placement of the corneal electrodes. The electrical stimulus in the MES test was 50 mA, 60 Hz, for mice and 150 mA, 60 Hz, for rats, delivered for 0.2 sec (White et al., 2002, In R. H. Levy et al., eds. Antiepileptic Drugs, 5th edition, p. 36-48, Philadelphia: Lippincott Williams & Wilkins). The ability of the test substance to prevent seizures induced by 6 Hz corneal stimulation (32 mA, 3 sec duration) was assessed at various times after i.p. administration of 1 mg/kg HupA For assessment of hippocampal kindling, HupA (1 mg/kg, i.p.) was administered. The ability of the compound to block the expression of hippocampal kindled seizures was evaluated using the rapid hippocampal kindling model (White et al., 2002). Animals not displaying secondarily generalize seizures were considered protected.

[7] = tested on: mice; assay: Toxicity Model (TOX), rotorod / minimal motor impairment, mice i.p.; format: in vivo; settings: for Comment (6 Hz test, 22 mA) / Comment (6 Hz test, 32 mA): 1 h
From the text: To investigate the neurotoxicity levels of the huperzine compounds, the Toxicity Model (TOX) using a rotorod is employed. The animals (e.g., mice) were trained to stand on an accelerating rotorod rotating at 10 rev min^−1 with a diameter of 3.2 cm. The trained animal can be given the huperzine compound at various doses and the effect of huperzine on their motor skills can be determined. The dose at which the animals fell off the rotorod is the toxic dose.
The neurotoxicity of huperzine was tested in the rotorod test. The mice were trained to stand on an accelerating rotorod rotating at 10 rev min^−1 with a diameter of 3.2 cm. The trained animals were given the huperzine at various doses and the effect of huperzine on their motor skills was determined. The dose at which the animals fell off the rotorod was the toxic dose.
as §3, with “protected). […]” for “protected).”
Minimal toxicity was identified in mice by the rotorod procedure.

C/C=C1\[C@H]2C=C(C)C[C@]1(N)c1ccc(=O)[nH]c1C2 [Huperzine A]
time of peak anticonvulsant activity ([1]; after p.o. administration of 1 mg/kg): one-hour
time of peak activity post administration ([1]; rats, 1 mg/kg oral): between 30 minutes and two hours
solubility in the methyl cellulose solvent ([2]; at concentrations of 0.1-0.3 mg/kg): readily soluble
solubility in the methyl cellulose solvent ([2]; at higher concentrations (administered as suspension)): not soluble
behavioral impairment at anticonvulsant doses [3]: marked motor impairment
toxicity ([3]; 1 mg/kg oral): no toxicity
SCMET N/F (mice showing an effect / mice tested) ([4]; 1 mg/kg i.p., SOL, 0.5 h): 3/5 (MJ)^1
SCMET N/F (mice showing an effect / mice tested) ([4]; 3 mg/kg i.p., SUS, 0.5 h): 1/1 (MJ)
SCMET N/F (mice showing an effect / mice tested) ([4]; 10 mg/kg i.p., SUS, 4.0 h): 1/1 (MJ)
adverse effects in patients [5]: adverse effects were noted infrequently
protection in the mouse 6 Hz test (FIG. 1) ([6]; 0.8 mg/kg): time-dependent protection
Time to Peak Effect N/F ([6]; 0.25 h): 1/4
Time to Peak Effect N/F ([6]; 0.5 h): 1/4
Time to Peak Effect N/F ([6]; 1.0 h): 4/4
Time to Peak Effect N/F ([6]; 2.0 h): 2/4
Time to Peak Effect N/F ([6]; 4.0 h): 0/4
protection against 6 Hz seizures (FIG. 2) ([6]; mouse, in vivo): dose-dependent protection
TOX N/F (mice showing an effect / mice tested) ([7]; 0.1 mg/kg i.p., SOL, 4.0 h): 0/4
Comment (6 Hz test, 22 mA) ([7]; 0.18 mg/kg IP): Minimal motor impairment
Comment (6 Hz test, 32 mA) ([7]; 0.2 mg/kg IP): Tremors
Comment (6 Hz test, 32 mA) ([7]; 0.3 mg/kg IP): Tremors; also recorded: Minimal motor impairment
TOX N/F (mice showing an effect / mice tested) ([7]; 0.3 mg/kg i.p., SOL, 4.0 h): 0/4
Comment (6 Hz test, 22 mA) ([7]; 0.35 mg/kg IP): Minimal motor impairment
Comment (6 Hz test, 32 mA) ([7]; 0.42 mg/kg IP): Tremors; also recorded: Minimal motor impairment
Comment (6 Hz test, 22 mA) ([7]; 0.7 mg/kg IP): Tremors; also recorded: Minimal motor impairment
Comment (6 Hz test, 32 mA) ([7]; 0.83 mg/kg IP): Tremors; also recorded: Minimal motor impairment
TOX N/F (mice showing an effect / mice tested) ([7]; 1 mg/kg i.p., SOL, 0.5 h, (T) animals displaying tremors): 4/4 (T)^2
TOX N/F (mice showing an effect / mice tested) ([7]; 1 mg/kg i.p., SOL, 4.0 h, (T) animals displaying tremors): 2/2 (T)
TOX N/F (mice showing an effect / mice tested) ([7]; 3 mg/kg i.p., SUS, 0.5 h): 8/8
TOX N/F (mice showing an effect / mice tested) ([7]; 3 mg/kg i.p., SUS, 4.0 h, (T) animals displaying tremors): 4/4 (T)
TOX N/F (mice showing an effect / mice tested) ([7]; 10 mg/kg i.p., SUS, 0.5 h): 4/4
TOX N/F (mice showing an effect / mice tested) ([7]; 10 mg/kg i.p., SUS, 4.0 h, (T) animals displaying tremors): 2/2 (T)
TOX N/F (mice showing an effect / mice tested) ([7]; 30 mg/kg i.p., SUS, 0.5 h, (D) death of animals): 4/4 (D)^3
TOX N/F (mice showing an effect / mice tested) ([7]; 100 mg/kg i.p., SUS, 0.5 h, (D) death of animals): 8/8 (D)
TOX N/F (mice showing an effect / mice tested) ([7]; 300 mg/kg i.p., SUS, 0.5 h, (D) death of animals): 4/4 (D)
behavioral impairment at anticonvulsant doses ([7]; mice): marked motor impairment
